From patent US7531193B2 (priority 2004, dated 2009)
“And” between values parts separate entries of the source, which are not always exact repeats. Identical values can stand only once.

System: human striated muscle cell innervation with spinal cord and spinal ganglion explants from rat embryos
Assay type: cell-based, human (muscle cells), rat (embryo explants)

C/C=C/C=C\CC/C=C/C(=O)NCC(C)C [Pure spilanthol, spilanthol]
Effect on muscle contractions (conclusion): lead to a blockage of muscle contractions | Frequency of contractions (%), incubation without washout, 5 min: 0% and 7% | Frequency of contractions (%), incubation without washout, 1 h: 0% | Frequency of contractions (%), incubation without washout, 6 h: 0% and 4% | Frequency of contractions (%), recuperation after washout, 1 h: 0% | Incubation time after which muscle contractions are blocked: 5 min | Recuperation of contractile activity (conclusion): not observed | Time the fibres remain blocked after elimination of the substance: 24 h | Time until which the blockage is maintained during incubation: 6 h
